{
  "source": "the OligoGym collection",
  "note": "Only the 19 paired bases of each siRNA are shown; overhangs and chemistry are not given here. Further: test concentration or dose not given here.",
  "data": [
    {"biological_target": "firefly luciferase", "assay": "five studies, different assays", "conditions": "siRNA", "units": {"target inhibition": "%"}, "values": [
      {"substance": "sense AAGUAACAACCGCGAAAAA / antisense UUUUUCGCGGUUGUUACUU", "target inhibition": 76.6},
      {"substance": "sense UGAACUUCCCGCCGCCGUU / antisense AACGGCGGCGGGAAGUUCA", "target inhibition": 63.3},
      {"substance": "sense AAAAUCAGAGAGAUCCUCA / antisense UGAGGAUCUCUCUGAUUUU", "target inhibition": 88.4},
      {"substance": "sense UGUUUGUGGACGAAGUACC / antisense GGUACUUCGUCCACAAACA", "target inhibition": 35.9},
      {"substance": "sense AAAGAGAUCGUGGAUUACG / antisense CGUAAUCCACGAUCUCUUU", "target inhibition": 47.4},
      {"substance": "sense GCGGAGGAGUUGUGUUUGU / antisense ACAAACACAACUCCUCCGC", "target inhibition": 92.3},
      {"substance": "sense GAUUUCGAGUCGUCUUAAU / antisense AUUAAGACGACUCGAAAUC", "target inhibition": 98.9},
      {"substance": "sense CCGUUGUUGUUUUGGAGCA / antisense UGCUCCAAAACAACAACGG", "target inhibition": 89.3},
      {"substance": "sense AAAAAGUUGCGCGGAGGAG / antisense CUCCUCCGCGCAACUUUUU", "target inhibition": 38.8},
      {"substance": "sense CCAGUCAAGUAACAACCGC / antisense GCGGUUGUUACUUGACUGG", "target inhibition": 66.1},
      {"substance": "sense UUCUGAUUACACCCGAGGG / antisense CCCUCGGGUGUAAUCAGAA", "target inhibition": 10.7},
      {"substance": "sense GCACGGAAAGACGAUGACG / antisense CGUCAUCGUCUUUCCGUGC", "target inhibition": 39.2},
      {"substance": "sense AGUUGCGCGGAGGAGUUGU / antisense ACAACUCCUCCGCGCAACU", "target inhibition": 93.6},
      {"substance": "sense CGAAGUACCGAAAGGUCUU / antisense AAGACCUUUCGGUACUUCG", "target inhibition": 93.1},
      {"substance": "sense CGAAAAAGUUGCGCGGAGG / antisense CCUCCGCGCAACUUUUUCG", "target inhibition": 78.6},
      {"substance": "sense UGUGGACGAAGUACCGAAA / antisense UUUCGGUACUUCGUCCACA", "target inhibition": 77.8},
      {"substance": "sense UGAAGUCUCUGAUUAAGUA / antisense UACUUAAUCAGAGACUUCA", "target inhibition": 91.9},
      {"substance": "sense GAUGACGGAAAAAGAGAUC / antisense GAUCUCUUUUUCCGUCAUC", "target inhibition": 47.6},
      {"substance": "sense CUUCCCGCCGCCGUUGUUG / antisense CAACAACGGCGGCGGGAAG", "target inhibition": 47.2},
      {"substance": "sense CCAAUCAUCCAAAAAAUUA / antisense UAAUUUUUUGGAUGAUUGG", "target inhibition": 97.5},
      {"substance": "sense UGACGGAAAAAGAGAUCGU / antisense ACGAUCUCUUUUUCCGUCA", "target inhibition": 88.8},
      {"substance": "sense CCUUCAGGAUUACAAGAUU / antisense AAUCUUGUAAUCCUGAAGG", "target inhibition": 98.9},
      {"substance": "sense GUGUUGGGCGCGUUAUUUA / antisense UAAAUAACGCGCCCAACAC", "target inhibition": 91.9},
      {"substance": "sense CCGCGAACGACAUUUAUAA / antisense UUAUAAAUGUCGUUCGCGG", "target inhibition": 94.9},
      {"substance": "sense AGACGAUGACGGAAAAAGA / antisense UCUUUUUCCGUCAUCGUCU", "target inhibition": 93.1},
      {"substance": "sense CCGGAUACUGCGAUUUUAA / antisense UUAAAAUCGCAGUAUCCGG", "target inhibition": 96.3},
      {"substance": "sense UGGAGCACGGAAAGACGAU / antisense AUCGUCUUUCCGUGCUCCA", "target inhibition": 52.2},
      {"substance": "sense GGAAAGACGAUGACGGAAA / antisense UUUCCGUCAUCGUCUUUCC", "target inhibition": 87.6},
      {"substance": "sense AACUCGACGCAAGAAAAAU / antisense AUUUUUCUUGCGUCGAGUU", "target inhibition": 90.2},
      {"substance": "sense AACAUAAAGAAAGGCCCGG / antisense CCGGGCCUUUCUUUAUGUU", "target inhibition": 7.6},
      {"substance": "sense UGUAAACAAUCCGGAAGCG / antisense CGCUUCCGGAUUGUUUACA", "target inhibition": 9.91},
      {"substance": "sense GUUGGCAGAAGCUAUGAAA / antisense UUUCAUAGCUUCUGCCAAC", "target inhibition": 93.1},
      {"substance": "sense CGACGCAAGAAAAAUCAGA / antisense UCUGAUUUUUCUUGCGUCG", "target inhibition": 95.9},
      {"substance": "sense CCGCCGCCGUUGUUGUUUU / antisense AAAACAACAACGGCGGCGG", "target inhibition": 60.8},
      {"substance": "sense AGUUGCAGUUGCGCCCGCG / antisense CGCGGGCGCAACUGCAACU", "target inhibition": 37.3},
      {"substance": "sense GCAAGAAAAAUCAGAGAGA / antisense UCUCUCUGAUUUUUCUUGC", "target inhibition": 95.1},
      {"substance": "sense AGAUCGUGGAUUACGUCGC / antisense GCGACGUAAUCCACGAUCU", "target inhibition": 67},
      {"substance": "sense GUUUUGGAGCACGGAAAGA / antisense UCUUUCCGUGCUCCAAAAC", "target inhibition": -27.8},
      {"substance": "sense GCCGCCGUUGUUGUUUUGG / antisense CCAAAACAACAACGGCGGC", "target inhibition": 13.8},
      {"substance": "sense GUUGUGUUUGUGGACGAAG / antisense CUUCGUCCACAAACACAAC", "target inhibition": 90.1},
      {"substance": "sense ACGCAAGAAAAAUCAGAGA / antisense UCUCUGAUUUUUCUUGCGU", "target inhibition": 87.6},
      {"substance": "sense AGGUCUUACCGGAAAACUC / antisense GAGUUUUCCGGUAAGACCU", "target inhibition": 90.1},
      {"substance": "sense CCGGUUAUGUAAACAAUCC / antisense GGAUUGUUUACAUAACCGG", "target inhibition": 41.6},
      {"substance": "sense GUCUUACCGGAAAACUCGA / antisense UCGAGUUUUCCGGUAAGAC", "target inhibition": 61},
      {"substance": "sense AAAAAGAGAUCGUGGAUUA / antisense UAAUCCACGAUCUCUUUUU", "target inhibition": 91.2},
      {"substance": "sense AGAGAGAUCCUCAUAAAGG / antisense CCUUUAUGAGGAUCUCUCU", "target inhibition": 92.6},
      {"substance": "sense GAUGAUAAACCGGGCGCGG / antisense CCGCGCCCGGUUUAUCAUC", "target inhibition": 52.9},
      {"substance": "sense UAAAGAAAGGCCCGGCGCC / antisense GGCGCCGGGCCUUUCUUUA", "target inhibition": 5.9},
      {"substance": "sense UGGAAGAUGGAACCGCUGG / antisense CCAGCGGUUCCAUCUUCCA", "target inhibition": 16.6},
      {"substance": "sense GUACCGAAAGGUCUUACCG / antisense CGGUAAGACCUUUCGGUAC", "target inhibition": 80.4},
      {"substance": "sense CAUUCUAUCCGCUGGAAGA / antisense UCUUCCAGCGGAUAGAAUG", "target inhibition": 93.2},
      {"substance": "sense CCUCCCGGUUUUAAUGAAU / antisense AUUCAUUAAAACCGGGAGG", "target inhibition": 73.5},
      {"substance": "sense ACGGAAAGACGAUGACGGA / antisense UCCGUCAUCGUCUUUCCGU", "target inhibition": 73.8},
      {"substance": "sense GUCGCCAGUCAAGUAACAA / antisense UUGUUACUUGACUGGCGAC", "target inhibition": 44.9},
      {"substance": "sense AGAGAUCCUCAUAAAGGCC / antisense GGCCUUUAUGAGGAUCUCU", "target inhibition": 38.7},
      {"substance": "sense GCUUCGAGCAGACAUGAUA / antisense UAUCAUGUCUGCUCGAAGC", "target inhibition": 97.7},
      {"substance": "sense UACCGGAAAACUCGACGCA / antisense UGCGUCGAGUUUUCCGGUA", "target inhibition": 95.9},
      {"substance": "sense UGGAUUACGUCGCCAGUCA / antisense UGACUGGCGACGUAAUCCA", "target inhibition": 93.6},
      {"substance": "sense ACGUGCAAAAAAAGCUCCC / antisense GGGAGCUUUUUUUGCACGU", "target inhibition": 30},
      {"substance": "sense CGAAAGGUCUUACCGGAAA / antisense UUUCCGGUAAGACCUUUCG", "target inhibition": 95},
      {"substance": "sense UUACGUCGCCAGUCAAGUA / antisense UACUUGACUGGCGACGUAA", "target inhibition": 92.9},
      {"substance": "sense CCCGCCGCCGUUGUUGUUU / antisense AAACAACAACGGCGGCGGG", "target inhibition": 42.3},
      {"substance": "sense GAUAUGGGCUGAAUACAAA / antisense UUUGUAUUCAGCCCAUAUC", "target inhibition": 91.9},
      {"substance": "sense GACGCCAAAAACAUAAAGA / antisense UCUUUAUGUUUUUGGCGUC", "target inhibition": 85.8},
      {"substance": "sense CUCGACGCAAGAAAAAUCA / antisense UGAUUUUUCUUGCGUCGAG", "target inhibition": 91},
      {"substance": "sense UCAGAGAGAUCCUCAUAAA / antisense UUUAUGAGGAUCUCUCUGA", "target inhibition": 92.1},
      {"substance": "sense UGUGUUUGUGGACGAAGUA / antisense UACUUCGUCCACAAACACA", "target inhibition": 90.8},
      {"substance": "sense GACAAAUACGAUUUAUCUA / antisense UAGAUAAAUCGUAUUUGUC", "target inhibition": 86.5},
      {"substance": "sense CGCGAAAAAGUUGCGCGGA / antisense UCCGCGCAACUUUUUCGCG", "target inhibition": 32.1},
      {"substance": "sense AACAACCGCGAAAAAGUUG / antisense CAACUUUUUCGCGGUUGUU", "target inhibition": -5.7},
      {"substance": "sense CGCCGUUGUUGUUUUGGAG / antisense CUCCAAAACAACAACGGCG", "target inhibition": 74.8},
      {"substance": "sense GACGAAGUACCGAAAGGUC / antisense GACCUUUCGGUACUUCGUC", "target inhibition": 89.7},
      {"substance": "sense CGGCGCCAUUCUAUCCGCU / antisense AGCGGAUAGAAUGGCGCCG", "target inhibition": 53.8},
      {"substance": "sense ACGUCGCCAGUCAAGUAAC / antisense GUUACUUGACUGGCGACGU", "target inhibition": 84.1},
      {"substance": "sense GGUGAACUUCCCGCCGCCG / antisense CGGCGGCGGGAAGUUCACC", "target inhibition": 14.5},
      {"substance": "sense GGAAAAAGAGAUCGUGGAU / antisense AUCCACGAUCUCUUUUUCC", "target inhibition": 91.3},
      {"substance": "sense ACCGCGAAAAAGUUGCGCG / antisense CGCGCAACUUUUUCGCGGU", "target inhibition": 29.9},
      {"substance": "sense AGAGAUCGUGGAUUACGUC / antisense GACGUAAUCCACGAUCUCU", "target inhibition": 82.8},
      {"substance": "sense ACCGAAAGGUCUUACCGGA / antisense UCCGGUAAGACCUUUCGGU", "target inhibition": 94.7},
      {"substance": "sense UUGUUUUGGAGCACGGAAA / antisense UUUCCGUGCUCCAAAACAA", "target inhibition": 89.2},
      {"substance": "sense UCCGGAAGCGACCAACGCC / antisense GGCGUUGGUCGCUUCCGGA", "target inhibition": 89.7},
      {"substance": "sense GAAGUCUCUGAUUAAGUAC / antisense GUACUUAAUCAGAGACUUC", "target inhibition": 34.7},
      {"substance": "sense GUUGUUGUUUUGGAGCACG / antisense CGUGCUCCAAAACAACAAC", "target inhibition": 32.6},
      {"substance": "sense GCACUCUGAUUGACAAAUA / antisense UAUUUGUCAAUCAGAGUGC", "target inhibition": 93},
      {"substance": "sense AUUAUCAUGGAUUCUAAAA / antisense UUUUAGAAUCCAUGAUAAU", "target inhibition": 55.5},
      {"substance": "sense AAAACAUAAAGAAAGGCCC / antisense GGGCCUUUCUUUAUGUUUU", "target inhibition": 11.1},
      {"substance": "sense CAACCGCGAAAAAGUUGCG / antisense CGCAACUUUUUCGCGGUUG", "target inhibition": -1.3},
      {"substance": "sense AGAUCCUCAUAAAGGCCAA / antisense UUGGCCUUUAUGAGGAUCU", "target inhibition": 78.2},
      {"substance": "sense GUAACAACCGCGAAAAAGU / antisense ACUUUUUCGCGGUUGUUAC", "target inhibition": 85.5}
    ]}
  ]
}
